Measured values from ChEMBL document CHEMBL1201862, “PubChem BioAssay data set” (2004).
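Step 1: Grow cells in 96-well plates. Step 2: Expose to compound for 48 hours at 5 concentrations. Step 3: Interpolate endpoints linearly; if unreached, use highest concentration. Abbreviation: GI50, concentration required for 50% inhibition of growth.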 The source made the active and inactive calls. No stated cut-off is given here; in the data, active = GI50 up to about 1.1 µM and inactive = higher.

Tests used:
Test in all cases: DTP human tumour cell line panel, 48 h
MDA-MB-435 = tested on: MDA-MB-435
SK-MEL-2 = tested on: SK-MEL-2
NCI-H226 = tested on: NCI-H226
ACHN = tested on: ACHN
OVCAR-4 = tested on: OVCAR-4
Malme-3M = tested on: Malme-3M
UACC-62 = tested on: UACC-62
CCRF-CEM = tested on: CCRF-CEM
HOP-62 = tested on: HOP-62
HL-60 = tested on: HL-60
HCT-15 = tested on: HCT-15
MCF7 = tested on: MCF7
MDA-MB-231 = tested on: MDA-MB-231
SNB-19 = tested on: SNB-19
OVCAR-3 = tested on: OVCAR-3
HCT-116 = tested on: HCT-116
SF-268 = tested on: SF-268
A549 = tested on: A549
IGROV-1 = tested on: IGROV-1

Compound | GI50 (MDA-MB-435) | GI50 (SK-MEL-2) | GI50 (NCI-H226) | GI50 (ACHN) | GI50 (OVCAR-4) | GI50 (Malme-3M) | GI50 (UACC-62) | GI50 (CCRF-CEM) | GI50 (HOP-62) | GI50 (HL-60) | GI50 (HCT-15) | GI50 (MCF7) | GI50 (MDA-MB-231) | GI50 (SNB-19) | GI50 (OVCAR-3) | GI50 (HCT-116) | GI50 (SF-268) | GI50 (A549) | GI50 (IGROV-1)
Cn1c(Sc2ccc(-c3cccnc3)n2C)ccc1-c1cccnc1 | 13.4 µM (inactive) | 14.2 µM (inactive) | 24.5 µM (inactive) | 20.2 µM (inactive) | 14.6 µM (inactive) | 11.1 µM (inactive) | 14.9 µM (inactive) | 1.96 µM (inactive) | 17.6 µM (inactive) | 2.39 µM (inactive) | 16.8 µM | 17.7 µM (inactive) | 18.2 µM (inactive) | 19.6 µM (inactive) | 11.3 µM (inactive) | 8.79 µM (inactive) | 10.7 µM (inactive) | 26.4 µM (inactive) | 15 µM (inactive)
N=C(N)SCc1ccc(Cl)c2ccccc12.O=[N+]([O-])c1c(O)c(Cl)cc(Cl)c1Cl | 8.38 µM (inactive) | 8.95 µM (inactive) | 12 µM (inactive) | 12.5 µM (inactive) | 4.65 µM (inactive) | 9.1 µM (inactive) | 13.5 µM (inactive) | 9.59 µM (inactive) | 11.5 µM (inactive) | 4.38 µM (inactive) | 14.3 µM | 11.2 µM (inactive) | 8.22 µM (inactive) | 14.4 µM (inactive) | 9.18 µM (inactive) | 11.8 µM (inactive) | 15.7 µM (inactive) | 14.6 µM (inactive) | 13 µM (inactive)
Cc1ccc([S@+]([O-])c2occc2C=O)cc1 | 7.55 µM (inactive) | 15 µM (inactive) | 19.4 µM (inactive) | 15.4 µM (inactive) | 9.98 µM (inactive) | 3.7 µM (inactive) | 15.5 µM (inactive) | 1.64 µM (inactive) | 17.5 µM (inactive) | 1.8 µM (inactive) | 3.49 µM | 3.48 µM (inactive) | 8.65 µM (inactive) | 5.07 µM (inactive) | 2.81 µM (inactive) | 3.03 µM (inactive) | 5.38 µM (inactive) | 19.6 µM (inactive) | 11.7 µM (inactive)
CCOC(=O)c1cc2c([N+](=O)[O-])c(N)ccc2s1 | > 100 µM (inactive) | > 100 µM (inactive) | > 100 µM (inactive) | > 100 µM (inactive) | > 100 µM (inactive) | > 100 µM (inactive) | > 100 µM (inactive) | > 100 µM (inactive) | > 100 µM (inactive) | > 100 µM (inactive) | > 100 µM | > 100 µM (inactive) | > 100 µM (inactive) | > 100 µM (inactive) | > 100 µM (inactive) | > 100 µM (inactive) | > 100 µM (inactive) | > 100 µM (inactive) | > 100 µM (inactive)
Cc1nc2ccc(F)cc2c2c1CCN2c1ccc(Cl)cc1 | 6.64 µM (inactive) | 18.6 µM (inactive) | 9.38 µM (inactive) | 13.7 µM (inactive) | 13.4 µM (inactive) | 10.7 µM (inactive) | 10.9 µM (inactive) | 5.82 µM (inactive) | 13.1 µM (inactive) | 2.01 µM (inactive) | 13.1 µM | 11.6 µM (inactive) | 4.04 µM (inactive) | 36.6 µM (inactive) | 7.96 µM (inactive) | 4.52 µM (inactive) | 30.8 µM (inactive) | 17.2 µM (inactive) | 7.73 µM (inactive)
CN(CCNC(=O)c1cn(C)c2c1ccc1cc(Cl)c(Cl)cc12)CCNC(=O)c1cn(C)c2c1ccc1cc(Cl)c(Cl)cc12 | 1.77 µM (inactive) | 1.84 µM (inactive) | 24.7 µM (inactive) | 1.92 µM (inactive) | 2.5 µM (inactive) | 7.83 µM (inactive) | 1.95 µM (inactive) | 1.61 µM (inactive) | 1.79 µM (inactive) | 1.32 µM (inactive) | 1.74 µM | 1.96 µM (inactive) | 1.75 µM (inactive) | 2.08 µM (inactive) | 2.18 µM (inactive) | 1.94 µM (inactive) | 2.75 µM (inactive) | 1.82 µM (inactive) | 1.53 µM (inactive)
CS(=O)(=O)O.[Ag] | 2.91 µM (inactive) | 15.4 µM (inactive) | 25.1 µM (inactive) | 4.53 µM (inactive) | 2.33 µM (inactive) | 1.92 µM (inactive) | 17.9 µM (inactive) | 2.46 µM (inactive) | 25.4 µM (inactive) | 2.79 µM (inactive) | 18.7 µM | 4.03 µM (inactive) | 21.3 µM (inactive) | 29.3 µM (inactive) | 23.8 µM (inactive) | 5.04 µM (inactive) | 16 µM (inactive) | 10.3 µM (inactive) | 1.6 µM (inactive)
COc1ccc(NS(=O)(=O)c2ccc3ncn(NS(=O)(=O)c4ccc(I)cc4)c(=O)c3c2)cc1 | 84.1 µM (inactive) | > 100 µM (inactive) | 9.86 µM (inactive) | > 100 µM (inactive) | > 100 µM (inactive) | > 100 µM (inactive) | 95.9 µM (inactive) | 64.7 µM (inactive) | > 100 µM (inactive) | 49.3 µM (inactive) | > 100 µM | > 100 µM (inactive) | > 100 µM (inactive) | > 100 µM (inactive) | > 100 µM (inactive) | > 100 µM (inactive) | > 100 µM (inactive) | > 100 µM (inactive) | > 100 µM (inactive)
CCOC(=O)/C(C#N)=C/c1ccc2c(-c3c(OCC)ccc4cc(/C=C(\C#N)C(=O)OCC)ccc34)c(OCC)ccc2c1 | > 100 µM (inactive) | > 100 µM (inactive) | > 100 µM (inactive) | > 100 µM (inactive) | > 100 µM (inactive) | > 100 µM (inactive) | > 100 µM (inactive) | > 100 µM (inactive) | > 100 µM (inactive) | > 100 µM (inactive) | > 100 µM | > 100 µM (inactive) | 18.5 µM (inactive) | > 100 µM (inactive) | > 100 µM (inactive) | > 100 µM (inactive) | > 100 µM (inactive) | > 100 µM (inactive) | > 100 µM (inactive)
O=C1/C(=C\c2ccc(O)cc2)CCC/C1=C/c1ccc(Cl)c(Cl)c1 | 3.15 µM (inactive) | 18.6 µM (inactive) | 3.96 µM (inactive) | 3.52 µM (inactive) | 2.32 µM (inactive) | 5.3 µM (inactive) | 2.28 µM (inactive) | 0.374 µM (active) | 4.17 µM (inactive) | 1.96 µM (inactive) | 2.96 µM | 2.69 µM (inactive) | 3.38 µM (inactive) | 5.51 µM (inactive) | 3.67 µM (inactive) | 1.89 µM (inactive) | 3.35 µM (inactive) | 3.78 µM (inactive) | 0.331 µM (active)
C/C1=C\[C@H](C)C[C@H](C)OC(=O)[C@H](C)NC(=O)[C@@H](Cc2ccc(O)c(Br)c2)N(C)C(=O)[C@H](C)NC(=O)[C@@H](C)C1 | 0.0735 µM (active) | 0.0502 µM (active) | 0.0505 µM (active) | 0.0326 µM (active) | 0.0631 µM (active) | 0.0708 µM (active) | 0.146 µM (active) | 0.0124 µM (active) | 0.0139 µM (active) | 0.00447 µM (active) | 0.982 µM | 0.0479 µM (active) | 0.0211 µM (active) | 0.184 µM (active) | 0.0179 µM (active) | 0.00382 µM (active) | 0.0331 µM (active) | 0.0646 µM (active) | 0.0152 µM (active)
